Reference: patent US20220411362A1, “DITERPENOID COMPOUNDS THAT ACT ON PROTEIN KINASE C (PKC)” (K-Gen, Inc., priority 2019, published 2022)

Columns and labels:
C1b domain of human PKCθ = biological target: T1, C1b domain of human PKCθ (Homo sapiens, UniProt Q04759); assay: Competitive 3H-PDBu binding to C1b domain of PKCθ
T1 construct: Genes encoding C1b domains of human PKCα, δ, ε, θ, and PKD1 (PKCμ) were synthesized; made in house; host or cells: E. coli BL21(DE3)
T1 sequence (Q04759 231-281 limits assumed): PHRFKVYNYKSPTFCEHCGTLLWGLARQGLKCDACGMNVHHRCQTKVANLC
Method in brief: (§1)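 First, the E. coli-produced human GST-C1b protein was mixed with compound and 3H-PDBu and shaken 10 min at 37° C. Next, the plate sat on ice 20 min before filtration and scintillation counting of bound tracer. Finally, IC50 fits were transformed into Ki values.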

C1b domain of human PKCα = biological target: T2, C1b domain of human PKCα (Homo sapiens, UniProt P17252); assay: biochemical; type: binding; details: Ki PKCα, 3H-PDBu competition
T2 construct: Genes encoding C1b domains of human PKCα, δ, ε, θ, and PKD1 (PKCμ) were synthesized; made in house; host or cells: E. coli BL21(DE3)
Method in brief: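 Competitive binding against 3H-PDBu tracer used recombinant GST-C1b fusion protein expressed in E. coli. Incubation ran 10 min at 37°C with shaking, then 20 min on ice, followed by filtration and scintillation counting of trapped 3H-PDBu. Affinity was derived using each protein preparation's experimentally determined Kd for 3H-PDBu.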

[1] = biological target: T3, C1b domain of human PKD1 (PKCμ) (Homo sapiens, UniProt Q15139); assay: biochemical; type: binding
T3 construct: Genes encoding C1b domains of human PKCα, δ, ε, θ, and PKD1 (PKCμ) were synthesized; made in house; host or cells: E. coli BL21(DE3)
T3 sequence (Q15139 270-320 limits assumed): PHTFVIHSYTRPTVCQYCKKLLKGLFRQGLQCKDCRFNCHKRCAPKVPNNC
Method in brief: as §1

C1b domain of human PKCδ = biological target: T4, C1b domain of human PKCδ (Homo sapiens, UniProt Q05655); assay: Competitive 3H-PDBu binding to C1b domain of PKCδ; details: Ki PKCδ, 3H-PDBu competition
T4 construct: Genes encoding C1b domains of human PKCα, δ, ε, θ, and PKD1 (PKCμ) were synthesized; made in house; host or cells: E. coli BL21(DE3)
T4 sequence (Q05655 230-280 limits assumed): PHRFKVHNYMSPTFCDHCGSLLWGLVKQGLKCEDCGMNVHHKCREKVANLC
Method in brief: as §1

[2] = system: A549 non-small cell lung cancer cell line; assay: Proliferation of A549 (CellTiter Glo); type: cell-based; details: Homo sapiens, A549, 96 h, read-out: IC50 μM (A549 Cell Line)
Method in brief: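 A549 cells (K-Ras mutant) seeded 1,000/well, 24 h at 37° C, then treated with 3-fold serial dilutions (final DMSO ≤0.25%) for 96 h. Viability by CellTiter Glo luminescence; % inhibition vs DMSO-only Max, curve-fit to give IC50, relative IC50 and % top inhibition.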

PANC1 cells = assay: Sphere formation assay (cancer stemness); type: cell-based; details: Homo sapiens, PANC-1, read-out: concentration exhibiting at least 50% inhibition on the sphere forming efficiency
Procedure: A group of diterpenoid compounds of the present disclosure were tested to assess their effects on blocking formation of spheres from cancer cell lines such as PANC1, a K-Ras mutant pancreatic cell line. Briefly, PANC1 cells were harvested, re-suspended as single cell suspensions, counted and seeded into Ultra Low Attachment Culture 96-well plate (Corning, Cat #3474) at 100 cells/well in 100 μl of complete media (with 10% FBS) containing 2% Matrigel (Corning, Cat #354234) and DMSO or compounds. Six replicates per condition were seeded. The seeded cells were placed in the 37° C. tissue culture incubator. 10 μl of low serum containing media (with 0.1% FBS) was added to each well every week. Spheres formed after 3-4 weeks were counted. Sphere forming efficiency was expressed as percentage of # of spheres/# of cells seeded.

[3] = system: HL-60 (Leukemia) cell line; assay: Proliferation of HL-60; type: cell-based; details: for ratio of (IC50 of K01)/(IC50 of compound), HL-60: value in parenthesis; for IC50: Homo sapiens, HL-60, read-out: IC50 in μM HL-60 (Leukemia)
Procedure: (§2) The diterpenoid compounds were tested in A549, a non-small cell lung cancer cell line harboring a K-Ras activating mutation. Briefly, A549 cells at a density of 1,000 cells/well were seeded in 96-well plates and incubated at 37° C. for 24 hours. A series of different concentrations of compound stocks (500×) were prepared by 3-fold serial dilution in DMSO. These compounds were further diluted in culture media and then added to cells so that the final DMSO concentration was not exceeding 0.25%. After 96 hours of incubation, 50 μL of CellTiter Glo reagent (Promega) was added to each well and luminescence was measured after 10 minutes using EnVision (PerkinElmer). Luminescence from cells treated with DMSO alone was set as Max and % of inhibition was calculated as follows: Inhibition %=(Max−Sample value)/Max×100. Data was analyzed using XL-fit software (ID Business Solutions Ltd.) and IC50, relative IC50, and % of top inhibition was calculated. Some of the compounds in this disclosure were very potent in blocking proliferation of A549 lung cancer cells at low nM range. In addition, potency of inhibiting A549 proliferation correlated well with its binding affinity to PKCs for this series of compounds. In other words, higher affinity binders had stronger inhibitory effects on A549 proliferation. This further support the notion that activation, rather than inhibition, of certain PKC isoforms is required to block proliferation of cancer cells, some of which may harbor K-Ras mutations. This is in sharp contrast to previous literature and common belief that inhibition of PKC is necessary to block cancer cell growth (Kang, 2014, New Journal of Science, 2014:1-36). Data presented here is in agreement with recent findings that many loss-of-function but not gain-of-function mutations of PKC isoforms have been identified in many human cancers (Antal et al., 2015, Cell, 160:489-502).
(§3) The compounds in this disclosure were tested for their potency in blocking proliferation of a few other cancer cells lines, including K-Ras mutant pancreatic cell lines Panc2.13 and KP-4, leukemia cell line HL-60, and lymphoma cell lines Namalwa and Mino. Similar procedures as in Example 67 were followed. Initial cell numbers seeded in 96-well plates were different for different cell lines: 3000 cells/well for Panc2.13; 800-1000 cells/well for KP-4; 5000 cells/well for HL-60; 5000-10000 cells/well for Namalwa and Mino. A ratio ratio of (IC50 of K01)/(IC50 of compound) (data in parenthesis in Table 5) was used to normalize the compound potency from different assay batches to a common comparator […].

C1b domain of human PKCε = biological target: T5, C1b domain of human PKCε (Homo sapiens, UniProt Q02156); assay: Competitive 3H-PDBu binding to C1b domain of PKCε
T5 construct: Genes encoding C1b domains of human PKCα, δ, ε, θ, and PKD1 (PKCμ) were synthesized; made in house; host or cells: E. coli BL21(DE3)
T5 sequence (Q02156 242-292 limits assumed): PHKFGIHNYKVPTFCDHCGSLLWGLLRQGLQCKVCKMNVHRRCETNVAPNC
Method in brief: as §1

[4] = system: phosphorylation of PKCμ, PKCδ and Erk1/2 in A549 lung cancer cells; type: cell-based; details: 0.3 μM, 30 minutes, Western blot (FIG. 1)
Procedure: Cells were then treated with different drugs at indicated concentrations for 30 minutes. […] Imagequant LAS4000 (GE) was used to scan membranes if secondary antibodies anti-mouse IgG HRP conjugate or anti-rabbit IgG HRP conjugate (dilutions from 1:2000-1:10000) were used. For ProteinSimple Wes system, manufacture's procedure was followed (ProteinSimple 12-230 kDa Wes Separation Module) for sample preparation, loading, running, and data analysis.
Phosphorylation of these sites has been linked to acute activation or catalytic activity of the PKC isoforms and Erk1/2. High level of phosphorylation indicates strong activation.

[5] = system: Mino (Lymphoma) cell line; assay: Proliferation of Mino; type: cell-based; details: for IC50: Homo sapiens, MINO, read-out: IC50 in μM Mino (Lymphoma); for ratio of (IC50 of K01)/(IC50 of compound), Mino: value in parenthesis
Procedure: as §2, §3

[6] = system: KP-4 (Pancreatic) cell line; assay: Proliferation of KP-4; type: cell-based; details: Homo sapiens, KP-4, read-out: IC50 in μM KP-4 (Pancreatic)
Procedure: as §2, §3

[7] = system: Namalwa (Lymphoma) cell line; assay: Proliferation of Namalwa; type: cell-based; details: for ratio of (IC50 of K01)/(IC50 of compound), Namalwa: value in parenthesis; for IC50: read-out: IC50 in μM Namalwa (Lymphoma)
Procedure: as §2, §3

[8] = system: Panc2.13 (Pancreatic) cell line; assay: Proliferation of Panc2.13; type: cell-based; details: for ratio of (IC50 of K01)/(IC50 of compound), Panc2.13: value in parenthesis; for IC50: read-out: IC50 in μM Panc2.13 (Pancreatic)
Procedure: as §2, §3

SMILES | Ki (C1b domain of human PKCθ) [nM] | Ki (C1b domain of human PKCα) [nM] | Ki [1] [nM] | Ki (C1b domain of human PKCδ) [nM] | IC50 [2] [µM] | IC50 (PANC1 cells) [nM] | ratio of (IC50 of K01)/(IC50 of compound), HL-60 [3] | IC50 [3] [µM] | Ki (C1b domain of human PKCε) [nM] | phosphorylation of PKC (PKD/PKCμ), PKCδ and Erk1/2 [4] | IC50 [5] [µM] | ratio of (IC50 of K01)/(IC50 of compound), Mino [5] | IC50 [6] [µM] | ratio of (IC50 of K01)/(IC50 of compound), Namalwa [7] | IC50 [7] [µM] | ratio of (IC50 of K01)/(IC50 of compound), Panc2.13 [8] | IC50 [8] [µM]
CC1=C[C@H]2[C@@]3(O)[C@H](C)C[C@]4(OC(=O)[C@@H](N)C(C)(C)C)[C@H]([C@@H]3C=C(CO)C[C@]2(O)C1=O)C4(C)C [Compound K101-C1346] | 30 to 60 | 200 to 400 | 5 to 10 | 1 to 30 | 0.2 to 0.6 | ≤ 1500 | – | – | – | – | – | – | – | – | – | – | –
CC1=C[C@H]2[C@@]3(O)[C@H](C)C[C@]4(OC(=O)[C@@H](N)C5Cc6ccccc6C5)[C@H]([C@@H]3C=C(CO)C[C@]2(O)C1=O)C4(C)C [Compound K101-C1329] | 5 to 10 | 30 to 60 | < 5 | < 5 | 0.06 to 0.1 | ≤ 150 | 1.79 | 0.03 to 0.06 | 1 to 30 | induced high levels of phosphorylation | 0.01 to 0.03 | 5.5 | 0.06 to 0.1 | 1.6 | 0.03 to 0.06 | 5.82 | 0.1 to 0.2
CC1=C[C@H]2[C@@]3(O)[C@H](C)C[C@]4(OC(=O)C(C)(C)C)[C@H]([C@@H]3C=C(CO)C[C@]2(O)C1=O)C4(C)C [Compound K101-C1308] | 30 to 60 | 800 to 1000 | 5 to 10 | 1 to 30 | 0.06 to 0.1 | ≤ 150 | 5.29 | 0.06 to 0.1 | 1 to 30 | – | 0.01 to 0.03 | 6.82 | 0.1 to 0.2 | 1.38 | 0.03 to 0.06 | 6.29 | 0.1 to 0.2
